Data from patent US5217952A, “Peptides WS-9326a and WS-9326b, derivatives thereof and uses thereof” (Fujisawa Pharmaceutical Co., Ltd., priority 1988, dated 1993).
Blank lines part the entries; values can stand above or below the molecule they belong to. Numbered stars: 1 amine (or outer) side, 2 acyl side, 3 side chain; on linkers, the order of the positions; unused ones are H or OH. Bridge positions count the residues as written; N and C are the ends. Square brackets hold non-standard residues; d marks the D form. Peptide text beside a SMILES is read from it. * marks the point of attachment. Cinnamoyl(2-(1Z-pentenyl)) = CCC/C=C\c1ccccc1/C=C/C(=O)*; X1 = CN(/C(=C/c1ccc(O)cc1)C(=O)[*:2])[*:1]; NMeY = CN[C@@H](Cc1ccc(O)cc1)C(=O)O; aThr = C[C@H](O)[C@H](N)C(=O)O; X2 = CCCCCc1ccccc1CCC(=O)*

Tests used:
[1] = system: contractile responses of guinea pig trachea induced by substance P (SP); experiment: Contractile response of guinea pig trachea induced by substance P; settings: for IC50: read-out: IC50 (M), SP 10^-8 M induced contraction
Protocol: (§3) Tracheal spiral strips were prepared from adult, male, albino Hartley strain guinea pigs (600 g) according to standard technique and placed in jacketed 30 ml glass tissue bath. […] Tracheal strips (2 mm width and 50 mm length) were suspended under a resting tension of 500 mg in 30 ml organ baths containing warm (37° C.) oxygenated (95% O2 : 5% CO2) Tyrode solution of following composition: NaCl 137 mM (8 g/liter), KCl 2.7 mM (0.2 g/liter), CaCl2 ·2H2 O 1.8 mM (0.264 g/liter), MgCl2 ·6H2 O 1.02mM (0.208 g/liter), NaHCO3 11.9 mM (1 g/liter), NaH2 PO4 ·2H2 O 0.42 mM (0.066 g/liter) and glucose 5.5 mM (1 g/liter).

[2] = system: neurokinin A induced bronchoconstriction; experiment: Neurokinin A induced bronchoconstriction, intratrachea administration; type: in vivo, guinea-pigs; settings: for Inhibition (%) of neurokinin A response / ED50 mg/kg, inhibition of neurokinin A response: NKA 1 n mol/kg iv; for Effect of intratrachea administration on neurokinin A induced bronchoconstriction (in words): dissolved in DMSO; for Effect of intratrachea administration on neurokinin A induced bronchoconstriction (in words) / ED50 mg/kg, inhibition of neurokinin A response: intratrachea
Protocol: (§1) Male Hartley strain guinea-pigs weighing 300-500 g were immobilized with sodium pentobarbital (10 mg/animal administered intraperitoneally). The jugular vein was cannulated for administration of neurokinin A (or capsaicin) and drug. A catheter was also intubated into trachea for artifical ventilation. The animal was respirated by means of a miniature respiration pump (HARVARD B-34, 5 ml/stroke, 60 strokes/minute). Resistance to lung inflation was measured by a modification of Konzett-Rossler overflow technique.
The method was almost same as mentioned above.

[3] = system: acetic acid induced writhing; experiment: Analgesic action, acetic acid induced writhing; type: in vivo; settings: male ddY mice; intraperitoneally 15 minutes before acetic acid
Protocol: Ten male ddY strain mice were used par group. To estimate the frequency of writhing syndrome, the animals were observed from 3 to 13 minutes after an intraperitoneal injection of 0.2 ml/10 g of 0.6% acetic acid. […] The frequency of writhing syndrome in the treated animals was compared with that in the non-treated control animals.

[4] = system: neurokinin A induced bronchoconstriction; experiment: Neurokinin A induced bronchoconstriction, drug iv; type: in vivo, guinea-pigs; settings: 10 mg/kg, n:5
Protocol: as §1
(§2) Agonist was administered iv and the antagonist drug (prepared in 0.1% methyl cellulose-saline) was administered iv as shown below. [drawing 7]

[5] = system: contractile responses of guinea pig trachea induced by neurokinin A (NKA); experiment: Contractile response of guinea pig trachea induced by neurokinin A
Protocol: as §3

[6] = Solubility (physical and chemical properties); type: physicochemical
[7] = system: capsaicin induced bronchoconstriction; experiment: Capsaicin induced bronchoconstriction, drug iv; type: in vivo, guinea-pigs; settings: 10 mg/kg, n:4
Protocol: as §1, §2

[8] = Acute toxicity, single intraperitoneal injection; settings: mouse, in vivo, ip, ddY mice, male
Protocol: Acute toxicity of WS-9326A was determined in ddY mice (5 weeks old, male) by a single intraperitoneal injection of graded dose of test compound into 5 mice.

[9] = target: T1, specific [^3 H] substance P binding to guinea pig lung membranes (Cavia porcellus, UniProt P30547); experiment: ^3H-Substance P binding to guinea pig lung membranes (radioligand binding assay); settings: 3H-Substance P 1 nM, 4° C., 30 minutes, read-out: IC50 (M) lung, displacement of specific [3H] substance P binding
T1 construct: The trachea and lungs were removed, and stored at -80° C. until use; from tissue; host or cells: guinea pig trachea and lung crude membrane fraction
T1 sequence (P30547 whole entry): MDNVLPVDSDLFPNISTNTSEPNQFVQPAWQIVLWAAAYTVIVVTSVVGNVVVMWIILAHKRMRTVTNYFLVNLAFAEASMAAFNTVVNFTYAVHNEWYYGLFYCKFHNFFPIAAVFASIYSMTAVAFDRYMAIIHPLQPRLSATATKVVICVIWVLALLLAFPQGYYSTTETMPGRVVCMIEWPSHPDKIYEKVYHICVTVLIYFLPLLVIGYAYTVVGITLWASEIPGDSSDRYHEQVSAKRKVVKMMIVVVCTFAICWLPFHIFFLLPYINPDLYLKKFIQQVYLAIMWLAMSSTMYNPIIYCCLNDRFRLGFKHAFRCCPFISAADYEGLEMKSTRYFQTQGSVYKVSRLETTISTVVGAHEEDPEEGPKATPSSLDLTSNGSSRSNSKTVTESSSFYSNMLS
Protocol: Male albino Hartley strain guinea pigs (600 g) were sacrificed by decapitation. The trachea and lungs were removed, and stored at -80° C. until use. […] The tissue was homogenized with a Ultra-Disperser (YAMATO, MODEL LK-21) at a setting of maximum range for 10-s at 10-s intervals with cooling between homogenizations (total homogenization's time: 60 seconds). The homogenate was centrifuged (900×g for 10 min.) to remove tissue supernatant centrifuged at 14000×g for 20 min. to yield pellets which were referred to as crude membrane fractions. The pellets were resuspended in Medium I, homogenized with a teflon homogenizer and centrifuged at 14000×g for 20 min. The pellets were stored at -20° C.
^3 H-Substance P (1 nM, New England Nuclear) was incubated with 50 μl of the membrane preparation in medium I at 4° C. for 30 minutes in a final volume of 250 μl. At the end of the incubation period, its contents were quickly filtered over a whatmann GF/B glass fibre filter (pretreated with 0.1% polyethyleneimine for 3 hours prior to use) using cell harvester (BRANDEL M-24S). The filters were then washed ten times with a total of 3 ml of the washing buffer (50 mM Tris-HCl pH 7.5) at 0° C. The radioactivity was counted in 3 ml of Aquazol-2 in Packard sintillation counter (PACKARD TRI-CARB 4530).

[10] = intratrachea 0.03 mg/kg in DMSO, 20 minutes
[11] = intratrachea 0.03 mg/kg in DMSO, 35 minutes
[12] = intratrachea 0.03 mg/kg in DMSO, 50 minutes
[13] = intratrachea 0.03 mg/kg in DMSO, 65 minutes
[14] = intratrachea 0.3 mg/kg in DMSO, 20 minutes
[15] = intratrachea 0.3 mg/kg in DMSO, 35 minutes
[16] = intratrachea 0.3 mg/kg in DMSO, 50 minutes
[17] = intratrachea 0.3 mg/kg in DMSO, 65 minutes

Compound: CCCCCc1ccccc1CCC(=O)N[C@@H]1C(=O)N(C)/C(=C/c2ccc(O)cc2)C(=O)N[C@@H](CC(C)C)C(=O)N[C@H](Cc2ccccc2)C(=O)N[C@@H]([C@H](C)O)C(=O)N[C@@H](CC(N)=O)C(=O)N[C@@H](CO)C(=O)O[C@@H]1C [Tetrahydro-WS-9326A, tetrahydro-WS-9326A] (X2-T[X1]L[dF][aThr]NS; ester 1-C; N-terminus assumed)
IC50 [1]: 3.1e-06 M | Inhibition (%) of neurokinin A response ([2]; intratrachea 0.003 mg/kg in DMSO, 20 minutes): 5.4% | Inhibition (%) of neurokinin A response ([2]; intratrachea 0.003 mg/kg in DMSO, 35 minutes): 23.5% | Inhibition (%) of neurokinin A response ([2]; intratrachea 0.003 mg/kg in DMSO, 50 minutes): 17.2% | Inhibition (%) of neurokinin A response ([2]; intratrachea 0.003 mg/kg in DMSO, 65 minutes): 12.6% | Inhibition (%) of neurokinin A response [2, 10]: 50.0% | Inhibition (%) of neurokinin A response [2, 11]: 50.9% | Inhibition (%) of neurokinin A response [2, 12]: 51.4% | Inhibition (%) of neurokinin A response [2, 13]: 43.0% | Inhibition (%) of neurokinin A response [2, 14]: 77.7% | Inhibition (%) of neurokinin A response [2, 15]: 75.7% | Inhibition (%) of neurokinin A response [2, 16]: 74.6% | Inhibition (%) of neurokinin A response [2, 17]: 71.1% | Effect of intratrachea administration on neurokinin A induced bronchoconstriction (in words) [2]: highly potent | ED50, acetic acid induced writhing [3]: 5.5 mg/kg | Inhibition (%) of neurokinin A (1 n mol/kg, iv) response ([4]; 2 minutes): 41.0 ± 5.6% | Inhibition (%) of neurokinin A (1 n mol/kg, iv) response ([4]; 17 minutes): 100.0 ± 0.0% | Inhibition (%) of neurokinin A (1 n mol/kg, iv) response ([4]; 32 minutes): 99.2 ± 0.8% | Inhibition (%) of neurokinin A (1 n mol/kg, iv) response ([4]; 47 minutes): 98.4 ± 1.6% | Inhibition (%) of neurokinin A (1 n mol/kg, iv) response ([4]; 62 minutes): 100.0 ± 0.0%

Compound: CCC/C=C\c1ccccc1/C=C/C(=O)N[C@@H]1C(=O)N(C)/C(=C/c2ccc(O)cc2)C(=O)N[C@@H](CC(C)C)C(=O)N[C@H](Cc2ccccc2)C(=O)N[C@@H]([C@H](C)O)C(=O)N[C@@H](CC(N)=O)C(=O)N[C@@H](CO)C(=O)O[C@@H]1C [WS-9326A] ({Cinnamoyl(2-(1Z-pentenyl))}-T[X1]L[dF][aThr]NS; ester 1-C; N-terminus assumed)
Inhibition % NKA 10^-9 M ([5]; 3 μg/ml): 44% | Inhibition % NKA 10^-9 M ([5]; 10 μg/ml): 79% | Inhibition % NKA 10^-9 M ([5]; 30 μg/ml): 100% | IC50 ([5]; read-out: IC50 (M), NKA 10^-9 M induced contraction): 3.5e-06 M | Solubility ([6]; acetone): Sparingly Soluble | Solubility ([6]; chloroform): Insoluble | Solubility ([6]; ethanol): Soluble | Solubility ([6]; ethyl acetate): Sparingly Soluble | Solubility ([6]; methanol): Soluble | Solubility ([6]; water): Insoluble | Inhibition % SP 10^-8 M ([1]; 3 μg/ml): -10% | Inhibition % SP 10^-8 M ([1]; 10 μg/ml): 50% | Inhibition % SP 10^-8 M ([1]; 30 μg/ml): 63% | IC50 [1]: 9.7e-06 M | Inhibition (%) of neurokinin A response [2, 10]: 32.3% | Inhibition (%) of neurokinin A response [2, 11]: 28.4% | Inhibition (%) of neurokinin A response [2, 12]: 35.6% | Inhibition (%) of neurokinin A response [2, 13]: 35.5% | Inhibition (%) of neurokinin A response [2, 14]: 50.6% | Inhibition (%) of neurokinin A response [2, 15]: 42.4% | Inhibition (%) of neurokinin A response [2, 16]: 44.9% | Inhibition (%) of neurokinin A response [2, 17]: 42.0% | Inhibition (%) of neurokinin A response ([2]; intratrachea 3 mg/kg in DMSO, 20 minutes): 73.4% | Inhibition (%) of neurokinin A response ([2]; intratrachea 3 mg/kg in DMSO, 35 minutes): 79.4% | Inhibition (%) of neurokinin A response ([2]; intratrachea 3 mg/kg in DMSO, 50 minutes): 81.7% | Inhibition (%) of neurokinin A response ([2]; intratrachea 3 mg/kg in DMSO, 65 minutes): 77.7% | Effect of intratrachea administration on neurokinin A induced bronchoconstriction (in words) [2]: highly potent | ED50 mg/kg, inhibition of neurokinin A response ([2]; 20 minutes): 0.23 mg/kg | ED50 mg/kg, inhibition of neurokinin A response ([2]; 35 minutes): 0.29 mg/kg | ED50 mg/kg, inhibition of neurokinin A response ([2]; 50 minutes): 0.19 mg/kg | ED50 mg/kg, inhibition of neurokinin A response ([2]; 65 minutes): 0.24 mg/kg | Inhibition (%) of neurokinin A (1 n mol/kg, iv) response ([4]; 2 minutes): -16.5 ± 5.6% | Inhibition (%) of neurokinin A (1 n mol/kg, iv) response ([4]; 17 minutes): 30.2 ± 12.9% | Inhibition (%) of neurokinin A (1 n mol/kg, iv) response ([4]; 32 minutes): 45.8 ± 13.8% | Inhibition (%) of neurokinin A (1 n mol/kg, iv) response ([4]; 47 minutes): 55.4 ± 8.1% | Inhibition (%) of neurokinin A (1 n mol/kg, iv) response ([4]; 62 minutes): 49.9 ± 13.4% | Inhibition (%) of capsaicin (10 n mol/kg, iv) response ([7]; 2 minutes): 16.6 ± 5.1% | Inhibition (%) of capsaicin (10 n mol/kg, iv) response ([7]; 17 minutes): 40.6 ± 12.2% | Inhibition (%) of capsaicin (10 n mol/kg, iv) response ([7]; 32 minutes): 51.2 ± 10.4% | Inhibition (%) of capsaicin (10 n mol/kg, iv) response ([7]; 47 minutes): 37.2 ± 19.7% | Inhibition (%) of capsaicin (10 n mol/kg, iv) response ([7]; 62 minutes): 47.1 ± 16.7% | LD50 [8]: 250 to 500 mg/kg

Solubility ([6]; acetone): Insoluble | Solubility ([6]; chloroform): Insoluble | Solubility ([6]; ethanol): Sparingly Soluble | Solubility ([6]; ethyl acetate): Insoluble | Solubility ([6]; methanol): Soluble | Solubility ([6]; water): Insoluble | IC50 [9]: 8.8e-05 M
Compound: CCC/C=C\c1ccccc1/C=C/C(=O)N[C@@H]1C(=O)N(C)[C@@H](Cc2ccc(O)cc2)C(=O)N[C@@H](CC(C)C)C(=O)N[C@H](Cc2ccccc2)C(=O)N[C@@H]([C@H](C)O)C(=O)N[C@@H](CC(N)=O)C(=O)N[C@@H](CO)C(=O)O[C@@H]1C [WS-9326B] ({Cinnamoyl(2-(1Z-pentenyl))}-T[NMeY]L[dF][aThr]NS; ester 1-C)
